Measurements: PubChem BioAssay (NCI)
Several values for one entry are separate records, joined by “and”; a condition that tells them apart may be missing. Identical values can stand only once.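 Interpolation was linear, between the two tested concentrations surrounding the appropriate level; five concentrations were tested over 48 hours in 96-well plates. The concentration for 50% growth inhibition is given as GI50. At the TGI there is no net growth.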

Tests used:
Assay in all cases: NCI tumour cell line growth inhibition, 48 h
MDA-N = tested on: MDA-N
DLD-1 colon = tested on: DLD-1 colon
DMS 114 small cell lung = tested on: DMS 114 small cell lung
DMS 273 small cell lung = tested on: DMS 273 small cell lung
HOP-18 NSCLC = tested on: HOP-18 NSCLC
M19-MEL melanoma = tested on: M19-MEL melanoma
RXF-631 renal = tested on: RXF-631 renal
SNB-78 CNS = tested on: SNB-78 CNS
XF 498 CNS = tested on: XF 498 CNS
P388 leukemia = tested on: P388 leukemia
P388/ADR leukemia = tested on: P388/ADR leukemia
SN12K1 renal = tested on: SN12K1 renal

Row | Structure (SMILES) | TGI (DLD-1 colon) [µM] | TGI (DMS 114 small cell lung) | TGI (DMS 273 small cell lung) | TGI (HOP-18 NSCLC) [µM] | TGI (M19-MEL melanoma) [µM] | TGI (RXF-631 renal) [µM] | TGI (SNB-78 CNS) [µM] | TGI (XF 498 CNS) | further results
1 | O=C(CCCn1ccnc1[N+](=O)[O-])NCCn1cnc([N+](=O)[O-])c1 |  |  |  |  |  |  |  |  | TGI (MDA-N): > 100 µM
2 | COc1ccc(-c2cc(-c3ccccc3)c(C#N)c(=O)[nH]2)cc1 | > 100 | > 100 µM | > 100 µM | > 100 | > 100 | > 100 | > 100 |  | 
3 | NNC(=O)CC(=O)Nc1ccccc1F | > 100 | > 100 µM | > 100 µM | > 100 | > 100 | > 100 | > 100 |  | 
4 | CCOC(=O)c1c(-c2[nH]c(C(=O)OCc3ccccc3)c(C)c2C(=O)OCC)[nH]c(C(=O)OCc2ccccc2)c1C | > 100 | > 100 µM | > 100 µM | > 100 | > 100 |  | > 100 |  | 
5 | CCOC(=O)CNC(SC)=C(C#N)C#N | > 100 | > 100 µM | > 100 µM |  | > 100 |  | > 100 | > 100 µM | 
6 | COc1cc2ccc(CC#N)cc2cc1OC | > 100 | > 100 µM | > 100 µM |  | > 100 | > 100 | > 100 | > 100 µM | 
7 | COc1ccc2oc(-c3ccncc3)cc(=O)c2c1 | > 100 | > 100 µM | > 100 µM |  |  | > 100 |  | > 100 µM | 
8 | CCC[CH2][Sn]1([CH2]CCC)[O]C(=O)C[S]1 | 2.78 | 4.08 µM | 6.07 µM | 2.91 | 7.75 | 5.05 | 4.14 | 2.74 µM | GI50 (DLD-1 colon): 1290 nM; GI50 (DMS 114 small cell lung): 1290 nM; GI50 (DMS 273 small cell lung): 2110 nM; GI50 (HOP-18 NSCLC): 1570 nM; GI50 (M19-MEL melanoma): 1900 nM; GI50 (RXF-631 renal): 850 nM; GI50 (SNB-78 CNS): 1170 nM; GI50 (XF 498 CNS): 1410 nM
9 | C#CCOCn1cnc2ncnc(Cl)c21 | > 100 | > 100 µM | > 100 µM | > 100 | > 100 | > 100 | > 100 | > 100 µM | 
10 | CC(C)C(/C=C/c1ccccc1)=N\NC(=O)N/N=C(/C=C/c1ccccc1)C(C)C | > 100 | 60.1 µM | 55.1 µM |  | 76.9 |  | > 100 | 77.4 µM | 
11 | OC(COc1ccc(Cl)cc1Cl)CN1CCCC1 (configuration not stated) |  |  |  |  |  |  |  |  | TGI (MDA-N): > 100 µM
12 | CN(C)c1nc(N(C)C)nc(N(C)CN(C)c2nc(N(C)C)nc(N(C)C)n2)n1 | > 100 | > 100 µM | > 100 µM | > 100 | > 100 |  | > 100 |  | 
13 | COc1cc2c(c3oc(-c4ccc5c(c4)OCO5)c(O)c(=O)c13)CCC(C)(C)O2 | > 100 | > 100 µM | > 100 µM | > 100 | > 100 | > 100 | > 100 |  | 
14 | COC1=NN2C(OC)(c3ccccc3)c3c(-c4ccccc4)sc(-c4ccccc4)c3C2(c2ccccc2)S1 (configuration not stated) | > 100 |  | > 100 µM |  |  | > 100 | > 100 | > 100 µM | 
15 | O=C1c2c(c3c4ccccc4n4c3c3c2c2ccccc2n3C/C=C\C4)C(=O)N1Cc1ccccc1 | > 100 |  |  | > 100 | > 100 |  |  | 85.9 µM | 
16 | CSC(=S)N(C)NC(=O)c1cccc(C(=O)NN(C)C(=S)SC)n1 | > 100 | 17 µM | 54.1 µM | > 100 | > 100 |  | > 100 |  | 
17 | COc1cc(C2[C@H]3C(=O)N(c4ccc(Cc5ccc(N6C(=O)[C@@H]7ON(c8ccccc8)C(c8cc(OC)c(OC)c(OC)c8)[C@@H]7C6=O)cc5)cc4)C(=O)[C@H]3ON2c2ccccc2)cc(OC)c1OC (some centres not stated) | > 100 | > 100 µM | > 100 µM | > 100 | > 100 | > 100 | > 100 |  | 
18 | O=C1Cc2ccccc2N1/N=C\c1ccc(O)cc1 |  | > 100 µM | > 100 µM | > 100 | > 100 | > 100 | > 100 | > 100 µM | 

Row | Structure (SMILES) | TGI (DLD-1 colon) [µM] | TGI (DMS 114 small cell lung) | TGI (DMS 273 small cell lung) | TGI (HOP-18 NSCLC) [µM] | TGI (M19-MEL melanoma) [µM] | TGI (RXF-631 renal) [µM] | TGI (SNB-78 CNS) [µM] | TGI (XF 498 CNS) | further results
19 | CC1=C(C(=O)Nc2ccccc2C)C(c2ccc(N(C)C)cc2)C(C(=O)Nc2ccccc2C)=C(C)N1 | > 100 | > 100 µM | > 100 µM |  | > 100 | > 100 |  | > 100 µM | 
20 | CC1(C)CCc2cc3c(cc2O1)OC(C)(C)C1c2c(ccc4c2CCC(C)(C)O4)OC31 (configuration not stated) | > 100 | > 100 µM | > 100 µM |  | > 100 |  | > 100 | > 100 µM | 
21 | C(=C1\CCC/C(=C/c2ccccc2)C1=NNc1ccccc1)/c1ccccc1 | > 100 | > 100 µM | > 100 µM | > 100 | > 100 | > 100 | > 100 |  | 
22 | CC(C)O/C=C1\C(=O)C2(SCCS2)[C@H]2CCCC[C@@H]12 | > 100 |  | > 100 µM | > 100 | > 100 | > 100 | > 100 |  | 
23 | CSc1nc(Cl)c(Br)c(Nc2c[nH]c(=O)[nH]c2=O)n1 |  |  |  |  |  |  |  |  | TGI (MDA-N): 46.9 µM
24 | O=C1c2cnccc2Cc2cccc3c2N1c1ccccc1S3 | > 100 | 73.6 µM | 78.2 µM |  | 86.7 | > 100 |  | 32.6 µM | 
25 | CC(=O)Nc1ccc(-c2nnc(SCC(=O)Nc3ccccc3[N+](=O)[O-])o2)cc1 | > 100 | > 100 µM | > 100 µM | > 100 | > 100 |  | > 100 |  | 
26 | CC1SC2=NC3=C(c4ccccc4C3=O)C(c3ccc(Br)cc3)N2C1=O (configuration not stated) | > 100 | > 100 µM | > 100 µM |  | > 100 |  |  | > 100 µM | 
27 | N/C(=N\OC(=O)NC(Cl)=C(Cl)Cl)c1cc(C(F)(F)F)cc(C(F)(F)F)c1 |  |  |  |  |  |  |  |  | TGI (MDA-N): 59.5 µM
28 | COc1ccc(S(=O)(=O)O)cc1NS(=O)(=O)c1ccc(C)cc1 |  |  |  |  |  |  |  |  | TGI (MDA-N): > 100 µM
29 | CC[C@](O)(C(=O)O)c1cc2n(c(=O)c1CO)Cc1cc3ccccc3nc1-2 | 30 | 1.11 µM and 0.412 µM | 0.132 µM and 0.0963 µM | 4.88 | 0.547 | 1.04 |  | 4.41 µM and 0.793 µM | GI50 (DLD-1 colon): 311 nM and 337 nM; GI50 (DMS 273 small cell lung): 31.6 nM; TGI (MDA-N): 0.605 µM; TGI (P388 leukemia): 294 nM; TGI (P388/ADR leukemia): 25.6 µM; TGI (SN12K1 renal): 2730 nM; GI50 (SNB-78 CNS): 242 nM and 135 nM; GI50 (XF 498 CNS): 614 nM
30 | Cn1cc2ccccc2c1-c1nc(F)nc(Oc2ccc3c(c2)CC[C@@H]2C3CC[C@]3(C)C(O)CCC23)n1 (some centres not stated) | 30.9 | 37.8 µM | 43.2 µM | 35.7 | 47.8 |  | 36.1 |  | 
31 | CSc1nc2c(nc(N)n2C2OCC(O)C(O)C2O)c(=O)[nH]1 (configuration not stated) | > 100 | > 100 µM |  | > 100 | > 100 | > 100 | > 100 | > 100 µM | 
32 | O=C1C2Cc3ccccc3CN2C(=O)N1CN1CCN(CN2C(=O)C3Cc4ccccc4CN3C2=O)CC1 (configuration not stated) | > 100 | > 100 µM | > 100 µM | > 100 | > 100 | > 100 | > 100 |  | 
33 | Cc1cn(C2C=CC(=O)C(C)O2)c(=O)[nH]c1=O (configuration not stated) | 29.7 |  | 33.7 µM | 28.5 | 30.1 | 28.5 | 35.4 | 26.4 µM | 
34 | COc1ccc(CNc2nc3ccccc3nc2-c2cccs2)cc1OC |  |  | > 100 µM | > 100 | > 100 | > 100 | > 100 | 59.6 µM | 
35 | O=C(N/C(=C\c1ccc([N+](=O)[O-])cc1)c1nc2[nH]c(=S)[nH]c(=O)c2[nH]1)c1ccccc1 | > 100 | > 100 µM |  |  | > 100 |  | > 100 | > 100 µM | 
36 | COc1cc(C)c(C(=O)/C=C/c2cc(OC)c(O)c(OC)c2)cc1O | 35.1 | 72.3 µM | 70.1 µM |  | 54 | 59.8 | > 100 | 30.7 µM | 
